In patent EP1205473A1, “VESAMICOL PIPERAZINE DERIVATIVES AND DRUGS CONTAINING THE SAME” (DAIICHI RADIOISOTOPE LABORATORIES, LTD., priority 1999, dated 2001):

Legend:
vesamicol receptors [1] = target: T1, vesamicol receptors (Rattus norvegicus, UniProt Q62666); assay: Receptor binding test: inhibition of I-125 labeled 5-iodobenzo vesamicol binding to brain homogenate; set-up: from tissue; host or cells: rat brain without cerebellum, P2 fraction; species or system Male Wistar rats; details: Inhibitive concentration at 50% (IC50), Vesamicol receptor, Table 5; incubated three hours at 37°C; no unit printed in table (b19 gives nM for DRC140)
T1 sequence (Q62666 1-530): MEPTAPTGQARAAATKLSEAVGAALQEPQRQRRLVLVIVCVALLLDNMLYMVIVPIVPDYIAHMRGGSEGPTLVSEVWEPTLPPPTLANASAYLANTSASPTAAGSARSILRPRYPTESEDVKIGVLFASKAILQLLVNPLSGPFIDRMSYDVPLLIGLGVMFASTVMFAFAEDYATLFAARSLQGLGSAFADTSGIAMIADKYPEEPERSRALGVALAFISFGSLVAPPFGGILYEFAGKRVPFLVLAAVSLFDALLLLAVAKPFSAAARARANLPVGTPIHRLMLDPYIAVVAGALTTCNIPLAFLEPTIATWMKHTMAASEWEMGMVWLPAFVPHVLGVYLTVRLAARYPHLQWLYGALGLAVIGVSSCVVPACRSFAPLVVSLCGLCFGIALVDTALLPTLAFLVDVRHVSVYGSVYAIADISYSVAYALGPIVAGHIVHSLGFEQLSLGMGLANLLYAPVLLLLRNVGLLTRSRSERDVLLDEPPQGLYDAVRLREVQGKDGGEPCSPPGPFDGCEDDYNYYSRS
Method: (§1) Properties relating to binding of the vesamicol piperazine derivatives of the present invention to various receptors were examined as follows. Specifically, ligands which combine with each receptor were incubated together with homogenates prepared as follows.
To measure affinity of vesamicol receptors, I-125 labeled 5-iodobenzo vesamicol (synthesized and labeled according to Jung et al., J. Med. Chem. 33, 2065-2068, 1990) was added to a brain homogenate prepared as follows. The vesamicol piperazine derivatives synthesized in the Examples were added at various concentrations. The mixture was then incubated for three hours at 37°C.
(§2) B (%) =((1 0 0 × [U])^(∩))/([ I C50 (])^(∩) (+ [U])^(∩)) [formula] wherein B(%) is the proportion of specific binding in the total binding, n indicates a Hill coefficient, and U is the concentration of unbound ligand.
Male Wistar rats were anesthetized with ether and were decapitated. The brains were immediately extracted. The cerebella were removed from the brains. 0.32 M sucrose (containing 4 mM HEPES (pH 7.4)) in an amount of five times the wet amount (weight) of this sample was added. The sample was homogenized by a potter-type homogenizer for 12 strokes while cooling with ice. 0.32 M sucrose in the same amount as the homogenate (total: 10 times the wet amount of the original sample) was added. The suspension thus obtained was centrifuged for 5 minutes at 1,000 x g. The precipitate was removed. The supernatant liquid was centrifuged at 9,200 x g for 15 minutes to separate the precipitate from the supernatant liquid. P2 fractions were suspended in a Tris-HCl buffer (pH 7.4) for binding experiments and stored at -80°C until the start of the binding experiment.

vesamicol receptors [2] = target: T1, vesamicol receptors; assay: Inhibition experiment: inhibition of binding of radioactive-iodine-labeled DRC140 to P2 fractions; set-up: Synaptic vesicles were extracted and separated from the brain of a rat; from tissue; host or cells: rat brain without cerebellum: P2, crude synaptic vesicles, purified synaptic vesicles
sigma receptors = target: T2, sigma receptors (Cavia porcellus, UniProt Q60492); assay: Receptor binding test: inhibition of tritium-labeled (+) pentazocine binding to brain homogenate; set-up: species or system male guinea pig
T2 construct: The brain was immediately extracted; The cerebellum was removed from the brain; from tissue; host or cells: guinea pig brain without cerebellum, membrane pellet
T2 sequence (Q60492 whole entry): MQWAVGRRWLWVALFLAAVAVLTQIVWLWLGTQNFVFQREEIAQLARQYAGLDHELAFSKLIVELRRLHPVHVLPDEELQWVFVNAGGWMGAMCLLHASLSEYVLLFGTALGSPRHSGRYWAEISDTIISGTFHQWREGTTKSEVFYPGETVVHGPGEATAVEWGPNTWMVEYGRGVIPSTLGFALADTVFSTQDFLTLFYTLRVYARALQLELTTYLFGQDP
Method: as §1
To measure affinity to sigma receptors, tritium-labeled (+) pentazocine was added to a brain homogenate prepared as follows. The vesamicol piperazine derivatives synthesized in the Examples were added at various concentrations, and the mixture was incubated for two hours at room temperature.
as §2
A male guinea pig was anesthetized with ether and was decapitated. The brain was immediately extracted. The cerebellum was removed from the brain. 10 mM Tris-sucrose buffer solution (0.32 M sucrose + 10 mM Tris-HCl (pH 7.4)) was added in the amount of 10 ml/g of the tissue. The mixture was homogenized by a potter-type homogenizer for 6-10 strokes. The homogenate was centrifuged at 1,000 x g for 10 minutes at 4°C and the supernatant liquid was collected. The resulting pellets were suspended in the Tris-sucrose buffer solution at the concentration of 2 ml/g, followed by centrifugation at 1,000 x g for 10 minutes at 4°C. The supernatant liquids obtained by the two centrifugation at 1,000 x g were combined and centrifuged at 31,000 x g for 15 minutes at 4°C. The resulting pellets were suspended in a 10 mM Tris-HCl buffer solution (pH 7.4) at a concentration of 3 ml/g of tissue and incubated for 30 minutes at 25°C. After incubation, the suspension was centrifuged at 31,000 x g for 15 minutes at 4°C. The pellets obtained were suspended in a 10 mM Tris-HCl buffer solution (pH 7.4) to make a final concentration of 1.53 ml/g of tissue. The suspension was homogenized by a potter-type homogenizer for 5 strokes. The homogenate was stored at -80°C until the start of the experiment.

[3] = inhibitive concentration at 50% (IC50), Receptor Vesamicol
[4] = Inhibitive concentration at 50% (IC50), Sigma α-1 receptor
[5] = inhibitive concentration at 50% (IC50), Receptor Sigma-1
[6] = Table 7, P2 fractions, inhibition of radioactive-iodine-labeled DRC140 binding, Binding site names the inhibitor's own site, read-out: IC50 (nM) Average ± S.D

| Compound | IC50 (vesamicol receptors [1]) | IC50 (vesamicol receptors [2]; [3]) | IC50 (sigma receptors; [5]) | other results |
| --- | --- | --- | --- | --- |
| Cc1ccc(C)c(N2CCN([C@@H]3Cc4ccc(I)cc4C[C@H]3O)CC2)c1 (racemic) [DRE366, (±)-trans-7-iodo-2-hydroxy-3-[4-[2,5-dimethylphenyl]-piperazinyl]tetralin] | 1.14 nM | 0.88 nM | 203 nM | IC50 (sigma receptors; [4]): 203 nM |
| Nc1ccccc1N1CCN([C@@H]2Cc3c(I)cccc3C[C@H]2O)CC1 (single isomer, unassigned) [DRF419, (-)-trans-5-iodo-2-hydroxy-3-[4-[2-aminophenyl]piperazinyl]tetralin] | – | 0.3 nM | 4710 nM | – |
| Cc1ccccc1N1CCN([C@@H]2Cc3cccc(I)c3C[C@H]2O)CC1 (racemic) [DRE335, (+)-trans-8-iodo-2-hydroxy-3-[4-[2-methylphenyl]piperazinyl]tetralin] | 2.8 nM | – | – | – |
| COc1ccc(C)c(N2CCN([C@@H]3Cc4c(I)cccc4C[C@H]3O)CC2)c1 (racemic) [DRE378, (±)-trans-5-iodo-2-hydroxy-3-[4-[5-methoxy-2-methylphenyl]piperazinyl]tetralin] | 5.09 nM | – | – | – |
| Cc1cccc(C)c1N1CCN([C@@H]2Cc3c(I)cccc3C[C@H]2O)CC1 (racemic) [DRF382, (±)-trans-5-iodo-2-hydroxy-3-[4-[2,6-dimethylphenyl]piperazinyl]tetralin] | 5.04 nM | 6.94 nM | – | IC50 (sigma receptors; [4]): 1300 nM |
| Cc1ccc(C)c(N2CCN([C@@H]3Cc4c(I)cccc4C[C@H]3O)CC2)c1 (racemic) [DRE348, (±)-trans-5-iodo-2-hydroxy-3-[4-[2,5-dimethylphenyl]piperazinyl]tetralin] | 0.78 nM | 1.16 nM | 5570 nM | IC50 (sigma receptors; [4]): 1500 nM |
| OC1CCCCC1N1CCC(c2ccccc2)CC1 (single isomer, unassigned; (+)) [(+)-Vesamicol, 2-(4-phenyl-piperidino)cyclohexanol, reference compound] | – | – | – | IC50 (vesamicol receptors [2]; IC50 (nM) Average ± S.D): > 5000 nM |
| CNC(=O)Oc1ccc2c(c1)[C@]1(C)CCN(C)[C@@H]1N2C [Physostigmine, reference compound] | – | – | – | IC50 (vesamicol receptors [2]; IC50 (nM) Average ± S.D): > 5000 nM |
| Cc1ccc(C)c(N2CCN([C@@H]3Cc4cc(I)ccc4C[C@H]3O)CC2)c1 (racemic) [DRE365, (±)-trans-6-iodo-2-hydroxy-3-[4-[2,5-dimethylphenyl]piperazinyl]tetralin] | 2.9 nM | – | – | – |
| Nc1ccccc1N1CCN([C@@H]2Cc3cc(I)ccc3C[C@H]2O)CC1 (racemic) [DRG446, (±)-trans-6-iodo-2-hydroxy-3-[4-[2-aminophenyl]piperazinyl]tetralin] | – | 0.38 nM | 544 nM | – |
| Nc1ccccc1N1CCN([C@@H]2Cc3c(I)cccc3C[C@H]2O)CC1 (racemic) [DRF402, (±)-trans-5-iodo-2-hydroxy-3-[4-[2-aminophenyl]piperazinyl]tetralin] | – | 0.63 nM | – | – |
| CC(=O)Nc1ccccc1N1CCN([C@@H]2Cc3c(I)cccc3C[C@H]2O)CC1 (racemic) [DRF401, (±)-trans-5-iodo-2-hydroxy-3-[4-[N-acetyl-2-aminophenyl]-piperazinyl]tetralin] | – | 0.89 nM | – | – |
| COc1ccccc1N1CCN(CCCCN2C(=O)c3ccccc3C2=O)CC1 [NAN-190, reference compound] | – | – | – | IC50 (vesamicol receptors [2]; [6]): > 5000 nM |
| Cc1ccc(I)cc1N1CCN([C@@H]2Cc3c(N)cccc3C[C@H]2O)CC1 (racemic) [DRF383, (±)-trans-5-amino-2-hydroxy-3-[4-[5-iodo-2-methylphenyl]-piperazinyl]tetralin] | 8.74 nM | 8.47 nM | – | IC50 (sigma receptors; [4]): 6900 nM |
| 5-iodobenzovesamicol [(+)-IBVM, reference compound] | – | – | – | IC50 (vesamicol receptors [2]; read-out: inhibitive concentration at 50% (IC50), Receptor Vesamicol, Table 9, high purity derivatives (HPLC purified), I-125 labeled DRC140, P2 fractions, 3 hours at 37°C, unit inferred): 0.5 nM |
| Cc1cccc(N2CCN([C@@H]3Cc4c(I)cccc4C[C@H]3O)CC2)c1 (racemic) [DRF380, (±)-trans-5-iodo-2-hydroxy-3-[4-[3-methylphenyl]piperazinyl]tetralin] | 3.69 nM | 2.47 nM | 16300 nM | – |
| Oc1ccccc1N1CCN([C@@H]2Cc3c(I)cccc3C[C@H]2O)CC1 (racemic) [DRF403, (±)-trans-5-iodo-2-hydroxy-3-[4-[2-hydroxyphenyl]piperazinyl]tetralin] | – | 2.42 nM | 3030 nM | – |
| CCc1ccccc1N1CCN([C@@H]2Cc3c(I)cccc3C[C@H]2O)CC1 (racemic) [DRE353, (±)-trans-5-iodo-2-hydroxy-3-[4-[2-ethylphenyl]piperazinyl]tetralin] | 8.74 nM | 1.1 nM | 5110 nM | IC50 (sigma receptors; [4]): 6900 nM |
| COc1ccccc1N1CCN(CCCNc2c(C)c(=O)n(C)c(=O)n2C)CC1 [5-Methylurapidil, reference compound] | – | – | – | IC50 (vesamicol receptors [2]; IC50 (nM) Average ± S.D): > 5000 nM |
| COC(=O)[C@H]1[C@H]2C[C@@H]3c4[nH]c5cc(OC)ccc5c4CCN3C[C@H]2C[C@@H](OC(=O)c2cc(OC)c(OC)c(OC)c2)[C@@H]1OC [Reserpine, reference compound] | – | – | – | IC50 (vesamicol receptors [2]; [6]): > 5000 nM |
| CN(C(=O)Cc1ccc(Cl)c(Cl)c1)C(CN1CCCC1)c1cccc(OCC(=O)O)c1 (centres unmarked) [ICI204, 448, reference compound] | – | – | – | IC50 (vesamicol receptors [2]; IC50 (nM) Average ± S.D): > 5000 nM |
| CC1=NN=C(c2ccc(N)cc2)c2cc3c(cc2C1)OCO3 [GYKI52466, reference compound] | – | – | – | IC50 (vesamicol receptors [2]; IC50 (nM) Average ± S.D): > 5000 nM |
| Cc1ccccc1N1CCN([C@@H]2Cc3c(I)cccc3C[C@H]2O)CC1 (single isomer, unassigned) [DRE341, (+)-trans-5-iodo-2-hydroxy-3-[4-[2-methylphenyl]piperazinyl]tetralin] | – | 1.96 nM | – | – |
| O[C@@H]1Cc2cccc(I)c2C[C@H]1N1CCN(c2ccccn2)CC1 (racemic) [DRE328, (±)-trans-5-iodo-2-hydroxy-3-[4-[2-pyridyl]-piperazinyl]tetralin] | 38.4 nM | – | – | – |
| Cc1ccc(N2CCN([C@@H]3Cc4c(I)cccc4C[C@H]3O)CC2)cc1 (racemic) [DRF381, (±)-trans-5-iodo-2-hydroxy-3-[4-[4-methylphenyl]piperazinyl]tetralin] | 13.9 nM | 14.7 nM | 4780 nM | – |
| COc1ccccc1N1CCN([C@@H]2Cc3c(I)cccc3C[C@H]2O)CC1 (racemic) [DRF400, (±)-trans-5-iodo-2-hydroxy-3-[4-[2-methoxyphenyl]piperazinyl]tetralin] | – | 1.09 nM | 28800 nM | – |
